Data on 19 compounds can be found in patent publication US20070037253A1, “Methods and compositions for treatment of arthritis and cancer” (priority 2003, published 2007).

Common to all, as to assay type: biochemical
Test [1] has as its target T1, purified human synovial sPLA2 (human Type IIA sPLA2) (Homo sapiens, UniProt P14555).
T1 construct: purchased Cayman Chemicals, USA
T1 sequence (P14555 21-144): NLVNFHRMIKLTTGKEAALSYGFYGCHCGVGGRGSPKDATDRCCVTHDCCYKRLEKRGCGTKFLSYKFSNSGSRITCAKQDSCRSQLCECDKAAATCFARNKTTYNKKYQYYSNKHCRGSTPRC
The test can be described thus: sPLA2 inhibition, 3H-arachidonate-labelled E. coli membrane assay. The conditions noted are these: for inhibition at 5 µM: read-out: % Inhibition (mean ± SD).
Method: In brief, [^3H] arachidonate-labeled E. coli membranes (0.005 mCi/mL; 5.8 μCi/μmol, NEN) were used as substrate, and 100 mM Tris-HCl—25 mM CaCl2, pH 7.5 solution as an assay buffer. The reaction mixture contained 20 μL of substrate, 0.85 pmole of purified human synovial sPLA2 (human Type IIA sPLA2, Cayman Chemicals, USA), and an increasing concentrations of the family of synthetic peptides derived from the sequence of PIP. The final volume of the reaction mixture was adjusted to 250 μL with an assay buffer. After incubation of the mixture (37° C., 1 h) and termination of the reaction with 750 μL of chilled PBS containing 1% BSA, microfuge tubes containing the samples were centrifuged (10,000 g at 4° C. for 15 min), and 500 μL aliquots of the supernatant taken to measure the amount of [^3H]-labeled arachidonate released from the E. coli membrane using liquid scintillation counting (Multipurpose Scintillation Counter LS 6500; Beckman, USA). As controls, sPLA2 was pre-incubated with the assay buffer alone. All samples, including controls, were performed in triplicate and plotted as the percentage inhibition relative to negative controls.
A sigmoid dose response curve was generated to allow calculation of the IC50 values. All samples were performed in triplicate. Results were analyzed by nonlinear regression with GraphPad Prism (version 2.01) and expressed as the percentage of inhibition relative to control values.

The target of the next test is T2, human recombinant MMP-1 (Homo sapiens, UniProt P03956).
T2 construct: human recombinant MMP-1 catalytic domain in each well (15.3 U, 20 μL); purchased BIOMOL AK-404
T2 sequence (P03956 100-269 limits assumed): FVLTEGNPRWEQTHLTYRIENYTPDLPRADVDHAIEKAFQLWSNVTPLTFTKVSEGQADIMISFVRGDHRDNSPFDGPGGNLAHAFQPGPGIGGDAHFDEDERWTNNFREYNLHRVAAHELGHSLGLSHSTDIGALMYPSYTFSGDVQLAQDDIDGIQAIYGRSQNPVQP
The test is described as follows: MMP-1 colorimetric assay (BIOMOL AK-404 QuantiZyme). The protocol:
FIG. 3 illustrates the results of an assay on inhibition of human recombinant MMP-1 enzyme activity by various peptide mutants. (A) MMP-1 Activity Curves: The reaction velocity (V) was determined from the slope of the OD versus time (min) plot for each test inhibitor using the linear regression analysis. (∘), Human recombinant MMP-1 purified enzyme; (□), NNGH standard positive control MMP-1 selective inhibitor; (▾), P-NT.II; (▴), D60,65E dimer; (•), PIP [57-67] dimer; (▪), PIP [59-67] dimer. (B) MMP-1 Activity Inhibition Curves: Inhibition curves of various peptide mutants against the human MMP-1 activity. Results are expressed as the mean±SD (n=3).
Inhibition of MMP-1 enzymatic activity: Enzyme inhibition by peptide analogues was assessed by using MMP-1 Colorimetric assay kit for drug discovery (BIOMOL AK-404 QuantiZyme Assay system). Briefly, human recombinant MMP-1 catalytic domain in each well (15.3 U, 20 μL) was allowed to react either with the candidate peptide (test inhibitor) dissolved in DMSO (final 0.5% DMSO in assay buffer), or with the assay buffer alone (control) for 30 min at 37° C. Immediately following incubation, the reaction was initiated by adding the thiopeptide substrate solution in assay buffer (10 μL of 100 μM Ac-PLG-[2-mercapto-4-methyl-pentanoyl]-LG-OC2H5) into each well, and the absorbance at 412 nm continuously monitored for 10 min. 1 mM Ellman's reagent [5,5′-dithiobis (2-nitrobenzoic acid] in assay buffer (50 mM HEPES, 10 mM CaCl2, 0.05% Brij-35) was used as a colour developer in this assay system. The reaction velocity (V) was determined from the slope of the OD versus time (min) plot for each test inhibitor using the linear regression analysis (Graph Pad Prism, Version 2). Inhibition (%) was then calculated using the equation, [100]−[(V inhibitor/control)×100].

The test system of another test is collagenase I (MMP-1). The test is described as follows: Collagenase activity assay, collagen thin film (collagen type II substrate). The note with it: collagen thin film, collagen type II; peptide concentration not given. The procedure:
Collagenase activity was assayed by collagen thin film method using collagen type II as substrate. IC50 values were graphically determined from the inhibition curves, constructed on the basis of the in vitro results of collagenase assays. Results are the mean±SD of 3 separate experiments done in triplicates. (•), P-NT.II; (□), PIP [59-67] dimer; (Δ), PIP [59-67} monomer; (∇), LY 315920.
Collagenase activity assay: Using collagen thin film as the substrate, a quantitative method was established to measure the enzymatic activity of the MMPs (principally collagenase). Collagen type II (Sigma) solution (4 μL, 3 mg/mL in 0.012 N HCl) was added to each well of 96-well plates and precipitated by slowly increasing the pH with 4 μL of H2O and 8 μL of 0.012 N NaOH. The plate was dried at 23° C. for 24 hr, washed with H2O, and dried again at 23° C., resulting in a thin film containing 12 μg of collagen that was tightly bound to the bottom of the wells. Enzymatic reactions of the collagenase I (with and without peptide inhibitors) against the collagen films were carried out in quadruplicate at 24° C. for 16 h. The digested portion of the film was washed away, while the undigested portion was fixed for 3 h with 0.1% Coomassie brilliant blue R in 10% acetic acid and 45% methanol, and the wells washed and dried.

Where [2] appears, read: fixed peptide concentration (5 μM), 3H-labelled E. coli membrane assay.

Where a SMILES comes first, the peptide text is derived from it.

`CC[C@H](C)[C@H](NC(=O)[C@H](CCC(=O)O)NC(=O)[C@@H](N)C(C)C)C(=O)N[C@@H](Cc1c[nH]cn1)C(=O)N[C@H](C(=O)N[C@@H](Cc1c[nH]c2ccccc12)C(=O)N[C@@H](CCC(=O)O)C(=O)NCC(=O)N[C@H](C(=O)N[C@H](C(=O)N[C@@H](CCC(=O)O)C(=O)N[C@H](C(=O)N[C@@H](Cc1c[nH]cn1)C(=O)N[C@H](C(=O)N[C@@H](Cc1c[nH]c2ccccc12)C(=O)N[C@@H](CCC(=O)O)C(=O)NCC(=O)N[C@H](C(=O)O)C(C)C)C(C)C)[C@@H](C)CC)C(C)C)C(C)C)C(C)C` [D60,65E-PIP [59-67] dimer] (H-VEIHVWEGVVEIHVWEGV-OH; N-terminus and C-terminus assumed): the IC50 in test [1] was 4.23 ± 0.67 µM; at human recombinant MMP-1, 3.74 µM. For the same compound, in test [1] (setting [2]), the inhibition at 5 µM turned out to be 68.5 ± 3.94%.

Turning to `CC[C@H](C)[C@H](NC(=O)[C@H](CCC(=O)O)NC(=O)[C@@H](N)C(C)C)C(=O)N[C@@H](Cc1c[nH]cn1)C(=O)N[C@H](C(=O)N[C@@H](Cc1c[nH]c2ccccc12)C(=O)N[C@@H](CCC(=O)O)C(=O)NCC(=O)N[C@H](C(=O)O)C(C)C)C(C)C` [D60,65E-PIP [59-67]] (H-VEIHVWEGV-OH; N-terminus and C-terminus assumed), the inhibition at 5 µM in test [1] (setting [2]) worked out at 61.4 ± 4.32%. Moreover, the “Collagenase (% Inhibition)” value in the test with collagenase I (MMP-1) was found to be 5.4 ± 1.8%.

For the compound `CC[C@H](C)[C@H](NC(=O)[C@H](CC(=O)O)NC(=O)[C@@H](N)C(C)C)C(=O)N[C@@H](Cc1c[nH]cn1)C(=O)N[C@H](C(=O)N[C@@H](Cc1c[nH]c2ccccc12)C(=O)N[C@@H](C)C(=O)NCC(=O)N[C@H](C(=O)O)C(C)C)C(C)C` [D65A-PIP [59-67], VDIHVW (A) GV] (H-VDIHVWAGV-OH; N-terminus and C-terminus assumed), in test [1] (setting [2]), the inhibition at 5 µM is 48.5 ± 2.34%.

As to `CC[C@H](C)[C@H](NC(=O)[C@H](CC(=O)O)NC(=O)[C@@H](N)C(C)C)C(=O)N[C@@H](Cc1c[nH]cn1)C(=O)N[C@H](C(=O)N[C@@H](Cc1c[nH]c2ccccc12)C(=O)N[C@@H](CCC(=O)O)C(=O)NCC(=O)N[C@H](C(=O)O)C(C)C)C(C)C` [D65E-PIP [59-67], VDIHVW (E) GV] (H-VDIHVWEGV-OH; N-terminus and C-terminus assumed), the inhibition at 5 µM in test [1] (setting [2]) was 57.6 ± 3.22%.

Turning to `CC[C@H](C)[C@H](NC(=O)[C@H](CC(=O)O)NC(=O)[C@@H](N)C(C)C)C(=O)N[C@@H](Cc1c[nH]cn1)C(=O)N[C@H](C(=O)N[C@@H](Cc1c[nH]c2ccccc12)C(=O)N[C@@H](CO)C(=O)NCC(=O)N[C@H](C(=O)O)C(C)C)C(C)C` [D655-PIP [59-67], VDIHVW (S) GV] (H-VDIHVWSGV-OH; N-terminus and C-terminus assumed), the inhibition at 5 µM in test [1] (setting [2]) was found to be 52.5 ± 1.08%.

Regarding `CC[C@H](C)[C@H](NC(=O)[C@H](Cc1ccc(O)cc1)NC(=O)[C@@H](NC(=O)CNC(=O)[C@H](CC(=O)O)NC(=O)[C@H](Cc1c[nH]c2ccccc12)NC(=O)[C@@H](NC(=O)[C@H](Cc1cnc[nH]1)NC(=O)[C@@H](NC(=O)[C@H](CC(=O)O)NC(=O)[C@@H](NC(=O)[C@H](CCCNC(=N)N)NC(=O)CNC(=O)[C@@H](N)CC(C)C)C(C)C)[C@@H](C)CC)C(C)C)C(C)C)C(=O)N[C@@H](CCCNC(=N)N)C(=O)NCC(=O)N[C@@H](CCCNC(=N)N)C(=O)O` [P-NT.II] (H-LGRVDIHVWDGVYIRGR-OH), at human recombinant MMP-1, the concentration for half-maximal inhibition (IC50) amounted to 1.55 µM.

Consider `CC[C@H](C)[C@H](NC(=O)[C@H](CC(=O)O)NC(=O)[C@@H](NC(=O)[C@H](CCCNC(=N)N)NC(=O)CN)C(C)C)C(=O)N[C@@H](Cc1c[nH]cn1)C(=O)N[C@H](C(=O)N[C@@H](Cc1c[nH]c2ccccc12)C(=O)N[C@@H](CC(=O)O)C(=O)NCC(=O)N[C@H](C(=O)NCC(=O)N[C@@H](CCCNC(=N)N)C(=O)N[C@H](C(=O)N[C@@H](CC(=O)O)C(=O)N[C@H](C(=O)N[C@@H](Cc1c[nH]cn1)C(=O)N[C@H](C(=O)N[C@@H](Cc1c[nH]c2ccccc12)C(=O)N[C@@H](CC(=O)O)C(=O)NCC(=O)N[C@H](C(=O)O)C(C)C)C(C)C)[C@@H](C)CC)C(C)C)C(C)C)C(C)C` [PIP [57-67] dimer] (H-GRVDIHVWDGVGRVDIHVWDGV-OH; N-terminus and C-terminus assumed), for which the half-inhibitory concentration (IC50) in test [1] is 2.43 ± 0.76 µM; on human recombinant MMP-1, 0.97 µM. Moreover, the inhibition at 5 µM in test [1] (setting [2]) was 76.4 ± 3.87%.

For `CC[C@H](C)[C@H](NC(=O)[C@H](CC(=O)O)NC(=O)[C@@H](NC(=O)[C@@H](N)CCCNC(=N)N)C(C)C)C(=O)N[C@@H](Cc1c[nH]cn1)C(=O)N[C@H](C(=O)N[C@@H](Cc1c[nH]c2ccccc12)C(=O)N[C@@H](CC(=O)O)C(=O)NCC(=O)N[C@H](C(=O)O)C(C)C)C(C)C` [PIP [58-67]] (H-RVDIHVWDGV-OH), the “Collagenase (% Inhibition)” value with collagenase I (MMP-1) worked out at 29.4 ± 6.0%.

Consider `CC[C@H](C)[C@H](NC(=O)[C@H](CC(=O)O)NC(=O)[C@@H](N)C(C)C)C(=O)N[C@@H](Cc1cnc[nH]1)C(=O)N[C@H](C(=O)N[C@@H](Cc1c[nH]c2ccccc12)C(=O)N[C@@H](CC(=O)O)C(=O)NCC(=O)N[C@H](C(=O)N[C@H](C(=O)N[C@@H](CC(=O)O)C(=O)N[C@H](C(=O)N[C@@H](Cc1cnc[nH]1)C(=O)N[C@H](C(=O)N[C@@H](Cc1c[nH]c2ccccc12)C(=O)N[C@@H](CC(=O)O)C(=O)NCC(=O)N[C@H](C(=O)O)C(C)C)C(C)C)[C@@H](C)CC)C(C)C)C(C)C)C(C)C` [PIP [59-67] dimer] (H-VDIHVWDGVVDIHVWDGV-OH), for which the IC50 at human recombinant MMP-1 is 0.902 µM.

Consider DIHVWDG [PIP [60-66], P-NT.II analogue], for which, in the test on collagenase I (MMP-1), the “Collagenase (% Inhibition)” value is recorded as 4.7 ± 2.6%.

Take “GRVDIHVWDGV [PIP [57-67], P-NT.II analogue]”: the “Collagenase (% Inhibition)” value in the test on collagenase I (MMP-1) is given as 65.1 ± 3.3%.

With “GRVDIHVWDGVYIRGR [PIP [57-72], P-NT.II analogue]”, the “Collagenase (% Inhibition)” value with collagenase I (MMP-1) was 39.8 ± 3.5%.

As to “LGRVDIHVWDGVY [PIP [56-68], P-NT.II analogue]”, in the test with collagenase I (MMP-1), the “Collagenase (% Inhibition)” value is listed as 61.6 ± 7.6%.

On to “LGRVDIHVWDGVYI [PIP [56-69], P-NT.II analogue]”, for which the “Collagenase (% Inhibition)” value in the test on collagenase I (MMP-1) came out at 59.8 ± 6.2%.

Turning to “LGRVDIHVWDGVYIR [PIP [56-70], P-NT.II analogue]”, in the test with collagenase I (MMP-1), the “Collagenase (% Inhibition)” value turned out to be 60.6 ± 4.5%.

“LGRVDIHVWDGVYIRG [PIP [56-71], P-NT.II analogue]”: the “Collagenase (% Inhibition)” value with collagenase I (MMP-1) turned out to be 62.8 ± 6.6%.

For “RVDIHVWDGVYIRGR [PIP [58-72], P-NT.II analogue]”, the “Collagenase (% Inhibition)” value in the test with collagenase I (MMP-1) stood at 23.3 ± 2.9%.

Take VDIHVW (βD) GV [β-Asp65-PIP [59-67]]: the “% Inhibition (mean ± SD)” value in test [1] (setting [2]) is recorded as 49.71 ± 3.01%.

Take “VDIHVWDGVYIRGR [PIP [59-72], P-NT.II analogue]”: the “Collagenase (% Inhibition)” value with collagenase I (MMP-1) was found to be 14.5 ± 2.4%.
